Measurements from US20230044427A1, “EVAPORATION RETARDANT MEMBRANE FOR ODORANT COMPOSITIONS” (BASF SE, priority 2020, published 2023).

Assays:
[1] = Evaporation cell test: weight loss of volatile compound through coated or uncoated paper; format: physicochemical; conditions: 23° C., 50% humidity; for Weight loss of volatile compound through uncoated paper V2: uncoated paper V2, no coating
Procedure: The test was carried out according to the method described by Diehl, H. Pfeiffer, A.-M, Seyffer H., (2014), New testing method for functional barriers, International Paperworld IPW 8-11. All tests were carried out in a climate chamber at 23° C. and 50% humidity.
For this, circular specimens were cut from the paper coated with the respective coating. The specimen was placed in the holder of the evaporation cell. A defined amount of the respective volatile compound was filled into the chamber of the evaporation cell, and the chamber was closed by the holder and immediately weighed thereafter to an accuracy of 0.1 mg. The closed evaporation cell was reweighed after 1 h, 4 h, 1 d and 2 d.

[2] = vapor pressure at 25° C.; cited from earlier work
[3] = water / 1-octanol; cited from earlier work
[4] = paper 1, Polymer dispersion 1, thickness 10 g/m^2, coverage 50%
[5] = paper 1, Polymer dispersion 2, thickness 10 g/m^2, coverage 50%
[6] = paper 2, Polymer dispersion 1, thickness 15 g/m^2, coverage 30%
[7] = paper 2, Polymer dispersion 2, thickness 5 g/m^2, coverage 70%
[8] = paper V1, Polymer dispersion 1, thickness 10 g/m^2, coverage 100%
[9] = paper V1, Polymer dispersion 2, thickness 10 g/m^2, coverage 100%

Row | Structure (SMILES) | Weight loss of volatile compound through respective coating of paper 1 [1, 4] | Weight loss of volatile compound through respective coating of paper 1 [1, 5] | Weight loss of volatile compound through respective coating of paper 2 [1, 6] | Weight loss of volatile compound through respective coating of paper 2 [1, 7] | Weight loss of volatile compound through respective coating of paper V1 [1, 8] | Weight loss of volatile compound through respective coating of paper V1 [1, 9] | Weight loss of volatile compound through uncoated paper V2 [1] | VP(25° C.) [2] [mbar] | Log Pow [3]
1 | CC(=O)OCC(C)C [Isobutyl acetate] | 300 g/(m^2d) | 320 g/(m^2d) | 749 g/(m^2d) | 163 g/(m^2d) | 150 g/(m^2d) | 160 g/(m^2d) | 3500 g/(m^2d) | 20 | 1.8
2 | CCCCCC=O [Hexanal] | 291 g/(m^2d) | 702 g/(m^2d) | 725 g/(m^2d) | 353 g/(m^2d) | 145 g/(m^2d) | 350 g/(m^2d) | 3750 g/(m^2d) | 15 | 1.9
3 | C=C(C)[C@H]1CC=C(C)CC1 [Limonene] | 2 g/(m^2d) | 100 g/(m^2d) | 5 g/(m^2d) | 53 g/(m^2d) | 1 g/(m^2d) | 50 g/(m^2d) | 1750 g/(m^2d) | 2 | 4.6
4 | CCCCCC [n-Hexane] | 4 g/(m^2d) | 1900 g/(m^2d) | 10 g/(m^2d) | 953 g/(m^2d) | 2 g/(m^2d) | 950 g/(m^2d) | > 4000 g/(m^2d) | 201 | 3.9
5 | CCCCCCC [n-Heptane] | 2 g/(m^2d) | 1200 g/(m^2d) | 5 g/(m^2d) | 603 g/(m^2d) | 1 g/(m^2d) | 600 g/(m^2d) | 4500 g/(m^2d) | 61 | 4.8
6 | CC(C)=CCCC(C)CC=O (stereo not drawn) [Citronellal] | 2 g/(m^2d) | 2 g/(m^2d) | 5 g/(m^2d) | 4 g/(m^2d) | 1 g/(m^2d) | 1 g/(m^2d) | 950 g/(m^2d) | 0.5 | 3.8
7 | CCOC(C)=O [Ethyl acetate] | 1320 g/(m^2d) | 1300 g/(m^2d) | 3300 g/(m^2d) | 653 g/(m^2d) | 660 g/(m^2d) | 650 g/(m^2d) | 2450 g/(m^2d) | 7 | 0.9
8 | CC(=O)OCCC(C)C [Isoamyl acetate] | 120 g/(m^2d) | 204 g/(m^2d) | 295 g/(m^2d) | 103 g/(m^2d) | 60 g/(m^2d) | 100 g/(m^2d) | 2100 g/(m^2d) | 5 | 2.5
